# Reference: patent publication US4062950A, “Amino sugar derivatives” (priority 1973, dated 1977)
# Several values for one entry are separate records, joined by “and”; a condition that tells them apart may be missing. Identical values can stand only once.
# Columns and labels:
# pancreas-α-amylase = biological target: T1, pancreas-α-amylase (Sus scrofa, UniProt P00690); test: In vitro amylase test; assay type: biochemical
# T1 sequence (P00690 16-511): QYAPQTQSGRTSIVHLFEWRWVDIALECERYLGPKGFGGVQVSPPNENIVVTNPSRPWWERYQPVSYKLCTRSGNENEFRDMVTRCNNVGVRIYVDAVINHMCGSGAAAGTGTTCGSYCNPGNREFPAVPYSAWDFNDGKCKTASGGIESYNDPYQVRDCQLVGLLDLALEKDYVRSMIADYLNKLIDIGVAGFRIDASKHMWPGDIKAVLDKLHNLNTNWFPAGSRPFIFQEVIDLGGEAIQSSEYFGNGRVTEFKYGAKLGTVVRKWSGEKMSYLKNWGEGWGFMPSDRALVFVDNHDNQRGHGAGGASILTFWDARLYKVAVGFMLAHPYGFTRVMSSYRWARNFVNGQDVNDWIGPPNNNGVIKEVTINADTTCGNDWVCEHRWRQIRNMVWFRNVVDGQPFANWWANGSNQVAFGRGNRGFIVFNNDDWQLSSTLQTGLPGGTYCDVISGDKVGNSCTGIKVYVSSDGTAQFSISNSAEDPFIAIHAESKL
# Protocol: One amylase inhibitor unit (1 AIU) is defined as the amount of inhibitor which inhibits two amylase units to the extent of 50%. One amylase unit (AU) is the amount of enzyme which under the test conditions specified below splits 1 μequivalent of glucoside bonds in the starch per minute. The μequivalents of split bonds are determined colorimetrically as μequivalents of reducing sugars formed, using dinitrosalicylic acid, and are quoted as μequivalents of maltose equivalents, using a maltose calibration curve. To carry out the test, 0.1 ml of amylase solution (20-22 AU/ml) are mixed with 0-10 μg of inhibitor or 0-20 μl of the solution to be tested in 0.4 ml of 0.02 M sodium glycerophosphate buffer/0.001 M CaCl2, pH 6.9, and the mixture is equilibrated for 10-20 minutes in a water bath at 35° C. The mixture is then incubated for 5 minutes at 35° C with 0.5 ml of a 1% strength starch solution which has been pre-warmed to 35° C (soluble starch No. 1,252 from Merck, Darmstadt), and thereafter 1 ml of dinitrosalicyclic acid reagent (according to P. bernfeld in Colowick-Kaplan, Meth. Enzymol., Volume l, page 149) is added. To develop the color, the batch is heated for 5 minutes on a boiling water bath and then cooled, and 10 ml of distilled water are added. The extinction at 540 nm is measured against a correspondingly made-up blank without amylase. […] The percentage inhibition is plotted as a function of the quotient [formula]
# saccharase [1] = biological target: T2, saccharase (Sus scrofa, UniProt P56729); test: In vitro saccharase test; assay type: biochemical, pig; settings: for saccharase inhibiting activity of isolated product: product of the Examples
# T2 construct: sucrase subunit of the sucrase-isomaltase complex hydrolyses sucrose
# Protocol: One saccharase inhibitor unit (SIU) is defined as the amount of inhibitor which inhibits two saccharase units to the extent of 50%. One saccharase unit (SU) is the amount of enzyme which under the test conditions specified splits 1 μmol of sucrose to glucose and fructose per minute. The μmols of glucose formed are determined quantitatively by means of the glucose oxidase reaction under conditions under which a further splitting of the sucrose by the saccharase no longer takes place. To carry out the test, 0.05 ml of solubilized saccharase [from the mucous membrane of the small intestine of the pig, according to B. Borgastrom, A. Dahlquist, Acta Chem. Scand. 12, (1958), page 1,997], diluted with 0.1 M sodium maleate buffer of pH 6.0 to a SU content adjusted to 0.12 SU is mixed with 0-20 μg of inhibitor or 0-20 μl of the solution to be tested and brought up to 0.1 ml with 0.1 M sodium maleate buffer of pH 6.0. The mixture is equilibrated for 10 minutes at 35° C and 0.1 ml of an 0.05 M sucrose solution in 0.1 M sodium maleate buffer of pH 6.0, pre-warmed to 35° C, is then added. The mixture is incubated for 20 minutes at 35° C, the saccharase reaction is stopped by addition of 1 ml of glucose oxidase reagent, and the incubation is continued for a further 30 minutes at 35° C. (The glucose oxidase reagent is prepared by dissolving 2 mg of glucose oxidase, Boehringer, No. 15,423, in 100 ml of 0.565 M tris-HCl buffer of pH 7.0 and subsequently adding 1 ml of detergent solution (2 g of Triton X 100 + 8 g of 95% strength and analytical grade ethanol), 1 ml of dianisidine solution (260 mg of o-dianisidine. 2HCl in 20 ml of H2 O) and 0.5 ml of 0.1% strength aqueous peroxidase solution, Boehringer, No. 15,302). Thereafter, 1 ml of 50% strength H2 SO4 is added and a measurement carried out at 545 nm against a corresponding blank. To evaluate the results, the percentage inhibition of the saccharase employed is calculated and converted to SIU/g of SIU/liter from the 50% inhibition point, using a glucose calibration curve.
# saccharase [2] = biological target: T3, saccharase (Rattus norvegicus, UniProt P23739); test: In vivo saccharase inhibition (sucrose overfeeding test) in the fasting rat
# T3 construct: from tissue; host or cells: intestine of the living rat (endogenous enzyme)
# Protocol: The produce an alimentary hyperglycemia and hyperinsulinaemia, groups of 6 fasting rats are given (a) 2.5 g of sucrose, (b) 2.5 g of maltose or (c) 1 g of boiled starch orally, in aqueous solution or suspension. Six other rats are given the same carbohydrates in the same amount and a glycoside hydrolase inhibitor in the amount indicated. In addition, six other rats are given an appropriate volume of saline. The blood glucose and the serum insulin are then measured at short intervals of time, in the blood from the retro-orbital venous plexus. Blood glucose determinations are carried out in the Auto-Analyser device (Technicon), according to Hoffmann: J. biol.
# starch digestion = test: In vivo starch digestion inhibition (starch feeding test) in the fasting rat
# T3 sequence (P23739 1014-1841 limits assumed): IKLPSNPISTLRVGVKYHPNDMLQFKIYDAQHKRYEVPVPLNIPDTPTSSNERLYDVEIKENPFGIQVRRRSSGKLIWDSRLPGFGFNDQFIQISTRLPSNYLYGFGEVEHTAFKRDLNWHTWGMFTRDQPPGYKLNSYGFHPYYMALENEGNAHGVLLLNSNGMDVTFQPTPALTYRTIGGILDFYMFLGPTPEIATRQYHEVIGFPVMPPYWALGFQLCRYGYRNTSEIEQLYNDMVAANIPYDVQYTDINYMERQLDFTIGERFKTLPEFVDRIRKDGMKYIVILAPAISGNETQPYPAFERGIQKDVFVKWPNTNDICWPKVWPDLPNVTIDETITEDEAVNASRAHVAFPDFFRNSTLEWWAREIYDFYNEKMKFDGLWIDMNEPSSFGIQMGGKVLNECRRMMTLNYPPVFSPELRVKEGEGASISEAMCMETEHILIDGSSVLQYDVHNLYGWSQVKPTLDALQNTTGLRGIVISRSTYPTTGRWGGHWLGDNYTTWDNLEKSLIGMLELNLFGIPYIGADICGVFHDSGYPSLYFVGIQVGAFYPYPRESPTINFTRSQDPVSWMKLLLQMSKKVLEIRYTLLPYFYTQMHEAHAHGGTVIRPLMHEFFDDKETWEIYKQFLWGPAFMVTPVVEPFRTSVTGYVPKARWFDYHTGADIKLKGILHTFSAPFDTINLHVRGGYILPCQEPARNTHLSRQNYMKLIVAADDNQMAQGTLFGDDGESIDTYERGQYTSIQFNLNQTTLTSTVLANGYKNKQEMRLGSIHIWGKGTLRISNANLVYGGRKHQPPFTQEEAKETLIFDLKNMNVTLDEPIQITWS
# T3 sequence (P23739 2-1013 partner limits assumed): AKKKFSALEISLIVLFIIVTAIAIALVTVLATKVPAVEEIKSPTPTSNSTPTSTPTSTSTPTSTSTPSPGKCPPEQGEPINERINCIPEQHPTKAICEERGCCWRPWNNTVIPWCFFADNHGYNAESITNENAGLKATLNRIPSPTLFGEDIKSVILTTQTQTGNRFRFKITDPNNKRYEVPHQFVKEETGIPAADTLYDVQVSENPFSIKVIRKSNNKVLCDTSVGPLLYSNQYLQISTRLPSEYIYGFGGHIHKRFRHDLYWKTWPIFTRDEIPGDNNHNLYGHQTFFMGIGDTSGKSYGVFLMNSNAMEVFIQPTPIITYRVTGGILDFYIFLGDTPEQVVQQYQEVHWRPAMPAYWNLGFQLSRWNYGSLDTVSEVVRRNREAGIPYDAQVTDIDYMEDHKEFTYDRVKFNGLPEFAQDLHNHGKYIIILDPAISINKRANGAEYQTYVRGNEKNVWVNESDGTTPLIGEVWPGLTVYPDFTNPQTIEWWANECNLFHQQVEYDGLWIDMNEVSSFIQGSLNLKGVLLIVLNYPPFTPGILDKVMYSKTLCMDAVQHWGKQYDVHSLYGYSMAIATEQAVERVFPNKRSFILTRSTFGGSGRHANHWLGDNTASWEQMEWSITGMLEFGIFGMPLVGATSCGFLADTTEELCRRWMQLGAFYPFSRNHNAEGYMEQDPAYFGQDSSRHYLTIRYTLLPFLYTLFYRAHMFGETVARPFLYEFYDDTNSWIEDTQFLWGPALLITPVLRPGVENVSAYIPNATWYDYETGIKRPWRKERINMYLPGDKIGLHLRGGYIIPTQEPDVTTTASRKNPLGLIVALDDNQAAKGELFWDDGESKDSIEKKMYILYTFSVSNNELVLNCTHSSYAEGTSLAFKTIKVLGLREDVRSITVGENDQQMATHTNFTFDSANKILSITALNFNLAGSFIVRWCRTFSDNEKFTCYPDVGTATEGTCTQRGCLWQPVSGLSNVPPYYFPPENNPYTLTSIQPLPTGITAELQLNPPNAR
# T2 sequence (P56729 with tags, fused parts or gaps): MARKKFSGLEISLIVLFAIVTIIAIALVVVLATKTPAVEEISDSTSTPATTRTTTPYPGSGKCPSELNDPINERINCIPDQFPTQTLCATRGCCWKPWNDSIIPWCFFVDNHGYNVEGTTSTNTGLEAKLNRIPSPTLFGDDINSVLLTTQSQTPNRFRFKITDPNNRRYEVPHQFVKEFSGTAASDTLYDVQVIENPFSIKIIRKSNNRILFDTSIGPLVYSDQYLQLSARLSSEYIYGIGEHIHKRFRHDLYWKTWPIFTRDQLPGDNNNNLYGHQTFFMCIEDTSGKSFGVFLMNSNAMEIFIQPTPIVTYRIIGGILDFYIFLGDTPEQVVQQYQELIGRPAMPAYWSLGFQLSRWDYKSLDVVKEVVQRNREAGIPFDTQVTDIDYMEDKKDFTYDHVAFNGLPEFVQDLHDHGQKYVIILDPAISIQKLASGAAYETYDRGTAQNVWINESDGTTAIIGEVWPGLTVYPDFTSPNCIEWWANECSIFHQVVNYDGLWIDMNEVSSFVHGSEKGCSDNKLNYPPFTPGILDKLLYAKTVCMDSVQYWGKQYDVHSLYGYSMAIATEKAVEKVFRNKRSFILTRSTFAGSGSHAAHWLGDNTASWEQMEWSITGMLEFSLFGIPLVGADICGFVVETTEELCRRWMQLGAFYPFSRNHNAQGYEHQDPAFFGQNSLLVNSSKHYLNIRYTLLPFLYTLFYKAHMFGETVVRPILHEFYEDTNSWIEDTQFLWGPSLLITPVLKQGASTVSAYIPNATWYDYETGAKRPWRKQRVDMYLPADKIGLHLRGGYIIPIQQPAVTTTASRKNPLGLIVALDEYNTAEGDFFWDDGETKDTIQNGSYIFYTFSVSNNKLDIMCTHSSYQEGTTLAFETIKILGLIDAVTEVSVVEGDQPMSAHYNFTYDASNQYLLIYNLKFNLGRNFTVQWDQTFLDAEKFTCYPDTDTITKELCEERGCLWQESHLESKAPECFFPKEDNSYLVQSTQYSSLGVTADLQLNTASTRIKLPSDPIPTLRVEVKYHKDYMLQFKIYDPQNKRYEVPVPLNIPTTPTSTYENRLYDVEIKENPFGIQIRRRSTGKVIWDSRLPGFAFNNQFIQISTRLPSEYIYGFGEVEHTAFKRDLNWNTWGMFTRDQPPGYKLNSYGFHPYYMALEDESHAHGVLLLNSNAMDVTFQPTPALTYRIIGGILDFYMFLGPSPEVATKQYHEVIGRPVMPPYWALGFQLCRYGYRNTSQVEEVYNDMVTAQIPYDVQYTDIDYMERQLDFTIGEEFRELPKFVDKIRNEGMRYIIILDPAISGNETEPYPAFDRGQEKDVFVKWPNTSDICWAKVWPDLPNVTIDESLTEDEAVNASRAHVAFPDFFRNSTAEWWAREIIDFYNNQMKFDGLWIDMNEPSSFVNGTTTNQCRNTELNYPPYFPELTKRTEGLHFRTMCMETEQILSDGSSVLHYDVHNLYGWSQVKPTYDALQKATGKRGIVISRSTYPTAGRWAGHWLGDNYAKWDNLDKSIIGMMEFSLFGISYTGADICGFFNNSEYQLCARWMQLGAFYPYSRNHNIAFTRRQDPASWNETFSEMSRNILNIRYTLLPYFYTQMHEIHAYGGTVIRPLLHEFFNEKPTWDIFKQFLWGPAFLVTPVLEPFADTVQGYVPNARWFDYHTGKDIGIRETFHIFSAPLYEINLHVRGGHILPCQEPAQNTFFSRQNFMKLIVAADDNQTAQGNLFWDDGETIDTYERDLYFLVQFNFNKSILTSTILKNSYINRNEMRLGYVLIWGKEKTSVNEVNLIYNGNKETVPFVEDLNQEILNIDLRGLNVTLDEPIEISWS
compound,measurement,setting,value
"C[C@H]1O[C@H](O[C@H]2[C@H](O)[C@@H](O)[C@@H](O[C@H]3[C@H](O)[C@@H](O)C(O)O[C@@H]3CO)O[C@@H]2CO)[C@H](O)[C@@H](O)[C@@H]1N[C@H]1C=C(CO)[C@@H](O)[C@H](O)[C@H]1O (stereo partly drawn) [Formula IIIB, O-{4,6-bisdesoxy-4-[1 S-(1,4,6/5)-4,5,6-trihydroxy-3-hydroxymethylcyclohex-2-en-1-ylamino]-α-D-glucopyranosyl}-(1→4)-O-α-D-glucopyranosyl-(1→4)-D-glucopyranose]",α-Amylase Inhibition,"pancreas-α-amylase; in vitro, Table II","300,000 AIU/g"
same,α-Amylase Inhibition In Vitro,"pancreas-α-amylase; in vitro, Table VI",300 AIU/mg
same,amylase inhibiting activity of isolated product,pancreas-α-amylase; isolated product of the Examples,0.3 × 10^6 AIU/g
same,"Saccharase inhibition, in words",saccharase [1]; in vitro,most pronounced
same,Saccharase Inhibition,"saccharase [1]; in vitro, Table II","68,000 SIU/g"
same,Saccharase Inhibition In Vitro,"saccharase [1]; in vitro, Table IV",68 SIU/mg
same,saccharase inhibiting activity of isolated product,saccharase [1]; listed as 2 glucose units,"50,000 SIU/g and 60,000 SIU/g"
same,saccharase inhibiting activity of isolated product,saccharase [1]; listed as 2 units,"68,000 SIU/g"
same,saccharase inhibiting activity of isolated product,saccharase [1]; listed as two glucose units,"65,000 SIU/g"
same,Blood Glucose (Mean ± SD),"saccharase [2]; 2.5 g sucrose + 25 SIU oral, 15 Min.",71 ± 3.7 mg%
same,Blood Glucose (Mean ± SD),"saccharase [2]; 2.5 g sucrose + 25 SIU oral, 30 Min.",100 ± 7.3 mg%
same,Blood Glucose (Mean ± SD),"saccharase [2]; 2.5 g sucrose + 25 SIU oral, 45 Min.",107 ± 2.4 mg%
same,Blood Glucose (Mean ± SD),"saccharase [2]; 2.5 g sucrose + 100 SIU oral, 15 Min.",58 ± 5.9 mg%
same,Blood Glucose (Mean ± SD),"saccharase [2]; 2.5 g sucrose + 100 SIU oral, 30 Min.",92 ± 4.0 mg%
same,Blood Glucose (Mean ± SD),"saccharase [2]; 2.5 g sucrose + 100 SIU oral, 45 Min.",98 ± 5.0 mg%
same,ED50,"saccharase [2]; rat, read-out: Saccharase Inhibition (ED50 mg/kg)",0.21 mg/kg
same,Blood Glucose (Mean ± SD),"starch digestion; 1 g starch + 150 AIU oral, 5 Min.",82 ± 7.5 mg%
same,Blood Glucose (Mean ± SD),"starch digestion; 1 g starch + 150 AIU oral, 10 Min.",105 ± 4.2 mg%
same,Blood Glucose (Mean ± SD),"starch digestion; 1 g starch + 150 AIU oral, 15 Min.",120 ± 6.0 mg%
same,Blood Glucose (Mean ± SD),"starch digestion; 1 g starch + 150 AIU oral, 20 Min.",124 ± 7.0 mg%
same,Blood Glucose (Mean ± SD),"starch digestion; 1 g starch + 150 AIU oral, 30 Min.",134 ± 6.1 mg%
same,Blood Glucose (Mean ± SD),"starch digestion; 1 g starch + 150 AIU oral, 45 Min.",125 ± 5.2 mg%
same,Blood Glucose (Mean ± SD),"starch digestion; 1 g starch + 300 AIU oral, 5 Min.",79 ± 8.2 mg%
same,Blood Glucose (Mean ± SD),"starch digestion; 1 g starch + 300 AIU oral, 10 Min.",97 ± 2.7 mg%
same,Blood Glucose (Mean ± SD),"starch digestion; 1 g starch + 300 AIU oral, 15 Min.",105 ± 10 mg%
same,Blood Glucose (Mean ± SD),"starch digestion; 1 g starch + 300 AIU oral, 20 Min.",118 ± 6.7 mg%
same,Blood Glucose (Mean ± SD),"starch digestion; 1 g starch + 300 AIU oral, 30 Min.",119 ± 9.9 mg%
same,Blood Glucose (Mean ± SD),"starch digestion; 1 g starch + 300 AIU oral, 45 Min.",130 ± 5.9 mg%
same,Blood Glucose (Mean ± SD),"starch digestion; 1 g starch + 600 AIU oral, 5 Min.",70 ± 4.6 mg%
same,Blood Glucose (Mean ± SD),"starch digestion; 1 g starch + 600 AIU oral, 10 Min.",80 ± 8.8 mg%
same,Blood Glucose (Mean ± SD),"starch digestion; 1 g starch + 600 AIU oral, 15 Min.",94 ± 6.9 mg%
same,Blood Glucose (Mean ± SD),"starch digestion; 1 g starch + 600 AIU oral, 20 Min.",91 ± 16 mg%
same,Blood Glucose (Mean ± SD),"starch digestion; 1 g starch + 600 AIU oral, 30 Min.",103 ± 9.2 mg%
same,Blood Glucose (Mean ± SD),"starch digestion; 1 g starch + 600 AIU oral, 45 Min.",102 ± 4.2 mg%
same,Blood Glucose (Mean ± SD),"starch digestion; 1 g starch + 1,200 AIU oral, 5 Min.",70 ± 7.0 mg%
same,Blood Glucose (Mean ± SD),"starch digestion; 1 g starch + 1,200 AIU oral, 10 Min.",84 ± 7.7 mg%
same,Blood Glucose (Mean ± SD),"starch digestion; 1 g starch + 1,200 AIU oral, 15 Min.",88 ± 7.4 mg%
same,Blood Glucose (Mean ± SD),"starch digestion; 1 g starch + 1,200 AIU oral, 20 Min.",97 ± 5.2 mg%
same,Blood Glucose (Mean ± SD),"starch digestion; 1 g starch + 1,200 AIU oral, 30 Min.",97 mg%
same,Blood Glucose (Mean ± SD),"starch digestion; 1 g starch + 1,200 AIU oral, 45 Min.",100 ± 4.3 mg%
same,ED50,"starch digestion; ED50, starch, fasting rat, Table VI",1.6 mg/kg
same,"in vivo inhibition of starch digestion, in words",starch digestion; compared with expectation from in vitro amylase inhibition,much higher than would be expected
